Assay results from PubChem BioAssay AID1259407 (Chemical Carcinogenesis Research Information System (CCRIS), 2018).
Active and inactive are the calls of the source. The rule behind the calls is not given here.

System: CCRIS mutagenicity, Ames/micronucleus/aberration tests
Experiment: CCRIS mutagenicity studies

In the case of `Nc1ccc([N+](=O)[O-])cc1O`, the mutagenic call (End Point: IN VITRO CHROMOSOMAL ABERRATIONS, Test System: CHO CELLS, Metabolic Activation: NONE) is reported as “active; positive; precipitation occurred at 100.5 and 149.9 ug/ml”, the mutagenic call (End Point: IN VITRO CHROMOSOMAL ABERRATIONS, Test System: CHO CELLS, Metabolic Activation: RAT, LIVER, S-9, AROCLOR 1254) is reported as “active; positive; precipitation occurred at both doses” and the mutagenic call (Test System: AMES SALMONELLA TYPHIMURIUM, Strain/Indicator: TA98, Metabolic Activation: HAMSTER, LIVER, S-9, AROCLOR 1254 (10%), Method: PREINCUBATION) is reported as “active; positive”. For the same compound, the mutagenic call (Test System: AMES SALMONELLA TYPHIMURIUM, Strain/Indicator: TA98, Metabolic Activation: HAMSTER, LIVER, S-9, AROCLOR 1254, Method: PREINCUBATION) was “active; positive”, the mutagenic call (Test System: AMES SALMONELLA TYPHIMURIUM, Strain/Indicator: TA98, Metabolic Activation: NONE, Method: FLUCTUATION (MICROTITER)) was “active; positive” and the mutagenic call (Test System: AMES SALMONELLA TYPHIMURIUM, Strain/Indicator: TA98, Metabolic Activation: NONE, Method: PREINCUBATION) was “active; positive”. For the same compound, the mutagenic call (Test System: AMES SALMONELLA TYPHIMURIUM, Strain/Indicator: TA98, Metabolic Activation: NONE, Method: STANDARD PLATE) was “active; positive”, the mutagenic call (Test System: AMES SALMONELLA TYPHIMURIUM, Strain/Indicator: TA98, Metabolic Activation: RAT, LIVER, S-9, AROCLOR 1254 (10%), Method: PREINCUBATION) was “active; positive” and the mutagenic call (Test System: AMES SALMONELLA TYPHIMURIUM, Strain/Indicator: TA98, Metabolic Activation: RAT, LIVER, S-9, AROCLOR 1254, Method: PREINCUBATION) was “active; positive”. For the same compound, the mutagenic call (Test System: AMES SALMONELLA TYPHIMURIUM, Strain/Indicator: TA98, Metabolic Activation: RAT, LIVER, S-9, AROCLOR 1254, Method: STANDARD PLATE) was “inactive; negative”, the mutagenic call (Test System: AMES SALMONELLA TYPHIMURIUM, Strain/Indicator: TA100, Metabolic Activation: HAMSTER, LIVER, S-9, AROCLOR 1254 (10%), Method: PREINCUBATION) was “inactive; negative” and the mutagenic call (Test System: AMES SALMONELLA TYPHIMURIUM, Strain/Indicator: TA100, Metabolic Activation: NONE, Method: PREINCUBATION) was “inactive; negative”. The mutagenic call (Test System: AMES SALMONELLA TYPHIMURIUM, Strain/Indicator: TA100, Metabolic Activation: RAT, LIVER, S-9, AROCLOR 1254 (10%), Method: PREINCUBATION) was “inactive; negative”, the mutagenic call (Test System: AMES SALMONELLA TYPHIMURIUM, Strain/Indicator: TA1535, Metabolic Activation: HAMSTER, LIVER, S-9, AROCLOR 1254 (10%), Method: PREINCUBATION) was “inactive; negative” and the mutagenic call (Test System: AMES SALMONELLA TYPHIMURIUM, Strain/Indicator: TA1535, Metabolic Activation: HAMSTER, LIVER, S-9, AROCLOR 1254, Method: PREINCUBATION) was “inactive; negative”. The mutagenic call (Test System: AMES SALMONELLA TYPHIMURIUM, Strain/Indicator: TA1535, Metabolic Activation: NONE, Method: PREINCUBATION) was “inactive; negative”, the mutagenic call (Test System: AMES SALMONELLA TYPHIMURIUM, Strain/Indicator: TA1535, Metabolic Activation: RAT, LIVER, S-9, AROCLOR 1254 (10%), Method: PREINCUBATION) was “inactive; negative” and the mutagenic call (Test System: AMES SALMONELLA TYPHIMURIUM, Strain/Indicator: TA1535, Metabolic Activation: RAT, LIVER, S-9, AROCLOR 1254, Method: PREINCUBATION) was “inactive; negative”. The mutagenic call (Test System: AMES SALMONELLA TYPHIMURIUM, Strain/Indicator: TA1537, Metabolic Activation: HAMSTER, LIVER, S-9, AROCLOR 1254 (10%), Method: PREINCUBATION) was “active; positive”, the mutagenic call (Test System: AMES SALMONELLA TYPHIMURIUM, Strain/Indicator: TA1537, Metabolic Activation: HAMSTER, LIVER, S-9, AROCLOR 1254, Method: PREINCUBATION) was “active; positive” and the mutagenic call (Test System: AMES SALMONELLA TYPHIMURIUM, Strain/Indicator: TA1537, Metabolic Activation: NONE, Method: FLUCTUATION (MICROTITER)) was “inactive; negative”. For the same compound, the mutagenic call (Test System: AMES SALMONELLA TYPHIMURIUM, Strain/Indicator: TA1537, Metabolic Activation: NONE, Method: PREINCUBATION) was “active; positive”, the mutagenic call (Test System: AMES SALMONELLA TYPHIMURIUM, Strain/Indicator: TA1537, Metabolic Activation: RAT, LIVER, S-9, AROCLOR 1254 (10%), Method: PREINCUBATION) was “active; positive” and the mutagenic call (Test System: AMES SALMONELLA TYPHIMURIUM, Strain/Indicator: TA1537, Metabolic Activation: RAT, LIVER, S-9, AROCLOR 1254, Method: PREINCUBATION) was “active; positive”. For the same compound, the mutagenic call (Test System: AMES SALMONELLA TYPHIMURIUM, Strain/Indicator: TA7001, Metabolic Activation: NONE, Method: FLUCTUATION (MICROTITER)) was “inactive; negative”, the mutagenic call (Test System: AMES SALMONELLA TYPHIMURIUM, Strain/Indicator: TA7002, Metabolic Activation: NONE, Method: FLUCTUATION (MICROTITER)) was “inactive; negative” and the mutagenic call (Test System: AMES SALMONELLA TYPHIMURIUM, Strain/Indicator: TA7003, Metabolic Activation: NONE, Method: FLUCTUATION (MICROTITER)) was “inactive; negative”. The mutagenic call (Test System: AMES SALMONELLA TYPHIMURIUM, Strain/Indicator: TA7004, Metabolic Activation: NONE, Method: FLUCTUATION (MICROTITER)) was “inactive; negative”, the mutagenic call (Test System: AMES SALMONELLA TYPHIMURIUM, Strain/Indicator: TA7005, Metabolic Activation: NONE, Method: FLUCTUATION (MICROTITER)) was “inactive; negative” and the mutagenic call (Test System: AMES SALMONELLA TYPHIMURIUM, Strain/Indicator: TA7006, Metabolic Activation: NONE, Method: FLUCTUATION (MICROTITER)) was “inactive; negative”. For the same compound, the mutagenic call (Test System: MOUSE LYMPHOMA, Strain/Indicator: L5178Y (TK+/TK-), Metabolic Activation: NONE, Method: SUSPENSION/PLATE) was “active; positive”.
